Key:
MC38 colon carcinoma = test: Tumor growth inhibition with chemotherapy or cancer immunotherapy combinations in subcutaneous syngeneic MC38 colon carcinoma model; type: in vivo, C57BL/6N mice; conditions: for TCR (day 21) / TGI (day 21): compared to control antibody; for TGI (day 21): antibody 30 mg/kg i.p. weekly; for Median time to progression TV > 700 mm3: mouse, in vivo
From the text: Inhibition of Tumor Growth Under Treatment with Anti-CSF-1R Monoclonal Antibody in Combination with Chemotherapy or Cancer Immunotherapy in Subcutaneous Syngeneic MC38 Colon Carcinoma Models

primary tumor growth = test: Docetaxel combined with anti-mouse CSF-1R antibody (separate experiment); type: in vivo
Description: Docetaxel was administered 3 times weekly as 1 cycle followed by 3 weeks drug holiday.

O=C1[O][Pt]2([NH][C@@H]3CCCC[C@H]3[NH]2)[O]C1=O [Oxaliplatin]
TCR (day 21) (MC38 colon carcinoma): 0.54 | TGI (day 21) (MC38 colon carcinoma): 46% | Median time to progression TV > 700 mm3 (MC38 colon carcinoma): 21

CC(=O)O[C@@]12CO[C@@H]1C[C@H](O)[C@@]1(C)C(=O)[C@H](O)C3=C(C)[C@@H](OC(=O)[C@H](O)[C@@H](NC(=O)OC(C)(C)C)c4ccccc4)C[C@@](O)([C@@H](OC(=O)c4ccccc4)[C@H]21)C3(C)C [docetaxel]
npTCR (primary tumor growth; after 2 cycles of docetaxel): 0.55 | TGI (primary tumor growth; after 2 cycles of docetaxel, docetaxel 3 mg/kg i.v., antibody 30 mg/kg i.p. weekly): 75% | median survival time (primary tumor growth; in vivo): 154 days

Proleukin: IL-2 (Proleukin, Novartis)
TCR (day 21) (MC38 colon carcinoma): 0.53 | TGI (day 21) (MC38 colon carcinoma): 47% | TGI (day 21) (MC38 colon carcinoma; listed as IL2): 47% | Median time to progression TV > 700 mm3 (MC38 colon carcinoma): 21

Source: patent US20170247459A1, “COMBINATION THERAPY OF ANTIBODIES AGAINST HUMAN CSF-1R AND USES THEREOF” (HOFFMANN-LA ROCHE INC., priority 2012, published 2017)
